Measured values as given in ChEMBL document CHEMBL1671617, “Correlation of antimicrobial resistance with beta-lactamases, the OmpA-like porin, and efflux pumps in clinical isolates of Acinetobacter baumannii endemic to New York City” (2008).
≈ marks a conversion by molar mass, not a printed value.

Legend:
Assay type in all cases: functional
Acinetobacter baumannii [1] = test: Antimicrobial activity against Acinetobacter baumannii unique clonal group isolate 39 expressing ampC, ompA, adeM by Etest method
Acinetobacter baumannii [2] = test: Antimicrobial activity against Acinetobacter baumannii alpha clonal group isolate 3 expressing ampC, ompA, adeB, adeM, aacC1, aadA1 by Etest method
Acinetobacter baumannii [3] = test: Antimicrobial activity against ISAba1 linked with the blaOXA-51-type beta-lactamase harboring Acinetobacter baumannii alpha clonal group isolate 7 expressing ampC, ompA, adeB, adeM, blaSHV-5 by Etest method
Acinetobacter baumannii [4] = test: Antimicrobial activity against ISAba1 linked with the blaOXA-51-type beta-lactamase harboring Acinetobacter baumannii alpha clonal group isolate 6 expressing ampC, ompA, adeB, adeM, aacC1, aadA1 by Etest method
Acinetobacter baumannii [5] = test: Antimicrobial activity against Acinetobacter baumannii unique clonal group isolate 37 expressing ampC, ompA, adeB, adeM by Etest method
Acinetobacter baumannii [6] = test: Antimicrobial activity against Acinetobacter baumannii alpha clonal group isolate 5 expressing ampC, ompA, adeB, adeM, aacC1, aadA1 by Etest method
Acinetobacter baumannii [7] = test: Antimicrobial activity against ISAba1 linked with the blaOXA-51-type beta-lactamase harboring Acinetobacter baumannii zeta clonal group isolate 24 expressing ampC, ompA, adeB, adeM, aadA1, aacA4, aacC2, blaSHV-5 by Etest method
Acinetobacter baumannii [8] = test: Antimicrobial activity against ISAba1 linked with the blaOXA-51-type beta-lactamase harboring Acinetobacter baumannii beta clonal group isolate 13 expressing ompA, adeB, adeM, aacA4, blaSHV-5 by Etest method
Acinetobacter baumannii [9] = test: Antimicrobial activity against ISAba1 linked with the blaOXA-51-type beta-lactamase harboring Acinetobacter baumannii lambda clonal group isolate 29 expressing ampC, ompA, adeM, aadB, aadA1 by Etest method
Acinetobacter baumannii [10] = test: Antimicrobial activity against Acinetobacter baumannii lambda clonal group isolate 27 expressing ampC, ompA, adeB, adeM, aadB, aadA1 by Etest method
Acinetobacter baumannii [11] = test: Antimicrobial activity against ISAba1 linked with the blaOXA-51-type beta-lactamase harboring Acinetobacter baumannii alpha clonal group isolate 1 expressing ampC, ompA, adeB, adeM by Etest method
Acinetobacter baumannii [12] = test: Antimicrobial activity against Acinetobacter baumannii nu clonal group isolate 33 expressing ampC, ompA, adeB, adeM by Etest method
Acinetobacter baumannii [13] = test: Antimicrobial activity against ISAba1 linked with the blaOXA-51-type beta-lactamase harboring Acinetobacter baumannii zeta clonal group isolate 25 expressing ampC, ompA, adeB, adeM, aadA1, aacA4, aacC2, blaSHV-5 by Etest method
Acinetobacter baumannii [14] = test: Antimicrobial activity against ISAba1 linked with the blaOXA-51-type beta-lactamase harboring Acinetobacter baumannii zeta clonal group isolate 21 expressing ampC, ompA, adeB, adeM, aacC2, blaSHV-5 by Etest method
Acinetobacter baumannii [15] = test: Antimicrobial activity against Acinetobacter baumannii alpha clonal group isolate 2 expressing ampC, ompA, adeB, adeM, aacC1, aadA1 by Etest method
Acinetobacter baumannii [16] = test: Antimicrobial activity against Acinetobacter baumannii alpha clonal group isolate 4 expressing ampC, ompA, adeB, adeM, aacC1, aadA1 by Etest method
Acinetobacter baumannii [17] = test: Antimicrobial activity against ISAba1 linked with the blaOXA-51-type beta-lactamase harboring Acinetobacter baumannii alpha clonal group isolate 8 expressing ampC, ompA, adeB, adeM, aacC1, aadA1 by Etest method
Acinetobacter baumannii [18] = test: Antimicrobial activity against ISAba1 linked with the blaOXA-51-type beta-lactamase harboring Acinetobacter baumannii beta clonal group isolate 14 expressing ompA, adeB, adeM, aacA4, blaSHV-5 by Etest method
Acinetobacter baumannii [19] = test: Antimicrobial activity against Acinetobacter baumannii unique clonal group isolate 38 expressing ampC, ompA, adeB, adeM by Etest method
Acinetobacter baumannii [20] = test: Antimicrobial activity against Acinetobacter baumannii eta clonal group isolate 36 expressing ampC, ompA, adeB, adeM by Etest method
Acinetobacter baumannii [21] = test: Antimicrobial activity against ISAba1 linked with the blaOXA-51-type beta-lactamase harboring Acinetobacter baumannii lambda clonal group isolate 28 expressing ampC, ompA, adeM, aadB, aadA1 by Etest method
Acinetobacter baumannii [22] = test: Antimicrobial activity against Acinetobacter baumannii nu clonal group isolate 34 expressing ampC, ompA, adeB, adeM by Etest method
Acinetobacter baumannii [23] = test: Antimicrobial activity against ISAba1 linked with the blaOXA-51-type beta-lactamase harboring Acinetobacter baumannii zeta clonal group isolate 22 expressing ampC, ompA, adeB, adeM, aadA1, aacA4, aacC2, blaSHV-5 by Etest method
Acinetobacter baumannii [24] = test: Antimicrobial activity against ISAba1 linked with the blaOXA-51-type beta-lactamase harboring Acinetobacter baumannii beta clonal group isolate 15 expressing ompA, adeB, adeM, aacA4, blaSHV-5 by Etest method
Acinetobacter baumannii [25] = test: Antimicrobial activity against ISAba1 linked with the blaOXA-51-type beta-lactamase harboring Acinetobacter baumannii beta clonal group isolate 11 expressing ompA, adeB, adeM, blaSHV-5 by Etest method
Acinetobacter baumannii [26] = test: Antimicrobial activity against ISAba1 linked with the blaOXA-51-type beta-lactamase harboring Acinetobacter baumannii unique clonal group isolate 40 expressing ampC, ompA, adeB, adeM, aadA1, aacA4, aacC2, blaSHV-5 by Etest method
Acinetobacter baumannii [27] = test: Antimicrobial activity against ISAba1 linked with the blaOXA-51-type beta-lactamase harboring Acinetobacter baumannii beta clonal group isolate 9 expressing ampC, ompA, adeB, adeM by Etest method
Acinetobacter baumannii [28] = test: Antimicrobial activity against ISAba1 linked with the blaOXA-51-type beta-lactamase harboring Acinetobacter baumannii beta clonal group isolate 12 expressing ompA, adeB, adeM, aacA4, aacC2, blaSHV-5 by Etest method
Acinetobacter baumannii [29] = test: Antimicrobial activity against ISAba1 linked with the blaOXA-51-type beta-lactamase harboring Acinetobacter baumannii zeta clonal group isolate 20 expressing ampC, ompA, adeB, adeM, aacC2 by Etest method
Acinetobacter baumannii [30] = test: Antimicrobial activity against ISAba1 linked with the blaOXA-51-type beta-lactamase harboring Acinetobacter baumannii lambda clonal group isolate 30 expressing ampC, ompA, adeB, adeM, aadB, aadA1 by Etest method
Acinetobacter baumannii [31] = test: Antimicrobial activity against Acinetobacter baumannii eta clonal group isolate 35 expressing ampC, ompA, adeB, adeM by Etest method
Acinetobacter baumannii [32] = test: Antimicrobial activity against Acinetobacter baumannii nu clonal group isolate 31 expressing ampC, ompA, adeB, adeM, aadB, aadA2 by Etest method
Acinetobacter baumannii [33] = test: Antimicrobial activity against ISAba1 linked with the blaOXA-51-type beta-lactamase harboring Acinetobacter baumannii beta clonal group isolate 17 expressing ompA, adeB, adeM, aacA4, blaSHV-5 by Etest method
Acinetobacter baumannii [34] = test: Antimicrobial activity against ISAba1 linked with the blaOXA-51-type beta-lactamase harboring Acinetobacter baumannii zeta clonal group isolate 19 expressing ampC, ompA, adeB, adeM, aacC2 by Etest method
Acinetobacter baumannii [35] = test: Antimicrobial activity against ISAba1 linked with the blaOXA-51-type beta-lactamase harboring Acinetobacter baumannii zeta clonal group isolate 23 expressing ampC, ompA, adeB, adeM, aadA1, aacA4, aacC2, aphA6 by Etest method
Acinetobacter baumannii [36] = test: Antimicrobial activity against ISAba1 linked with the blaOXA-51-type beta-lactamase harboring Acinetobacter baumannii beta clonal group isolate 10 expressing ompA, adeB, adeM, aacA4, blaSHV-5 by Etest method
Acinetobacter baumannii [37] = test: Antimicrobial activity against ISAba1 linked with the blaOXA-51-type beta-lactamase harboring Acinetobacter baumannii beta clonal group isolate 16 expressing ompA, adeB, adeM, aacA4, blaSHV-5 by Etest method
Acinetobacter baumannii [38] = test: Antimicrobial activity against ISAba1 linked with the blaOXA-51-type beta-lactamase harboring Acinetobacter baumannii zeta clonal group isolate 26 expressing ampC, ompA, adeB, adeM, aadA1, aacA4, aacC2, blaSHV-5 by Etest method
Acinetobacter baumannii [39] = test: Antimicrobial activity against Acinetobacter baumannii nu clonal group isolate 32 expressing ampC, ompA, adeB, adeM, aadB, aadA2 by Etest method
Acinetobacter baumannii [40] = test: Antimicrobial activity against ISAba1 linked with the blaOXA-51-type beta-lactamase harboring Acinetobacter baumannii beta clonal group isolate 18 expressing ompA, adeB, adeM, aacA4, blaSHV-5 by Etest method

Compound C[C@@H](O)[C@H]1C(=O)N2C(C(=O)O)=C(SCCNC=N)C[C@H]12 [IMIPENEM ANHYDROUS] has an MIC (Acinetobacter baumannii [1]) of 0.25 µg/mL (≈ 0.835 µM), an MIC (Acinetobacter baumannii [2]) of 0.38 µg/mL (≈ 1.27 µM) and an MIC (Acinetobacter baumannii [3]) of 4 µg/mL (≈ 13.4 µM). It also gave an MIC (Acinetobacter baumannii [4]) of 3 µg/mL (≈ 10 µM), an MIC (Acinetobacter baumannii [5]) of 0.5 µg/mL (≈ 1.67 µM) and an MIC (Acinetobacter baumannii [6]) of 0.38 µg/mL (≈ 1.27 µM). For the same compound, the MIC (Acinetobacter baumannii [7]) was greater than 1.5 µg/mL, the MIC (Acinetobacter baumannii [8]) was greater than 16 µg/mL and the MIC (Acinetobacter baumannii [9]) was 16 µg/mL (≈ 53.4 µM). For the same compound, the MIC (Acinetobacter baumannii [10]) was 4 µg/mL (≈ 13.4 µM), the MIC (Acinetobacter baumannii [11]) was 2 µg/mL (≈ 6.68 µM) and the MIC (Acinetobacter baumannii [12]) was 0.25 µg/mL (≈ 0.835 µM). The MIC (Acinetobacter baumannii [13]) was greater than 1.5 µg/mL, the MIC (Acinetobacter baumannii [14]) was 6 µg/mL (≈ 20 µM) and the MIC (Acinetobacter baumannii [15]) was 0.38 µg/mL (≈ 1.27 µM). For the same compound, the MIC (Acinetobacter baumannii [16]) was 0.38 µg/mL (≈ 1.27 µM), the MIC (Acinetobacter baumannii [17]) was 6 µg/mL (≈ 20 µM) and the MIC (Acinetobacter baumannii [18]) was greater than 16 µg/mL. The MIC (Acinetobacter baumannii [19]) was 0.19 µg/mL (≈ 0.635 µM), the MIC (Acinetobacter baumannii [20]) was 0.25 µg/mL (≈ 0.835 µM) and the MIC (Acinetobacter baumannii [21]) was 16 µg/mL (≈ 53.4 µM). The MIC (Acinetobacter baumannii [22]) was 0.25 µg/mL (≈ 0.835 µM), the MIC (Acinetobacter baumannii [23]) was 16 µg/mL (≈ 53.4 µM) and the MIC (Acinetobacter baumannii [24]) was greater than 16 µg/mL. For the same compound, the MIC (Acinetobacter baumannii [25]) was greater than 32 µg/mL, the MIC (Acinetobacter baumannii [26]) was greater than 32 µg/mL and the MIC (Acinetobacter baumannii [27]) was 12 µg/mL (≈ 40.1 µM). The MIC (Acinetobacter baumannii [28]) was 32 µg/mL (≈ 107 µM), the MIC (Acinetobacter baumannii [29]) was 1 µg/mL (≈ 3.34 µM) and the MIC (Acinetobacter baumannii [30]) was 8 µg/mL (≈ 26.7 µM). For the same compound, the MIC (Acinetobacter baumannii [31]) was 0.25 µg/mL (≈ 0.835 µM), the MIC (Acinetobacter baumannii [32]) was 0.25 µg/mL (≈ 0.835 µM) and the MIC (Acinetobacter baumannii [33]) was greater than 16 µg/mL. For the same compound, the MIC (Acinetobacter baumannii [34]) was 1 µg/mL (≈ 3.34 µM), the MIC (Acinetobacter baumannii [35]) was greater than 32 µg/mL and the MIC (Acinetobacter baumannii [36]) was 16 µg/mL (≈ 53.4 µM). It also gave an MIC (Acinetobacter baumannii [37]) greater than 16 µg/mL, an MIC (Acinetobacter baumannii [38]) greater than 1.5 µg/mL and an MIC (Acinetobacter baumannii [39]) of 0.25 µg/mL (≈ 0.835 µM). It also gave an MIC (Acinetobacter baumannii [40]) of 12 µg/mL (≈ 40.1 µM).

CC(C)(O/N=C(\C(=O)N[C@@H]1C(=O)N2C(C(=O)[O-])=C(C[n+]3ccccc3)CS[C@H]12)c1csc(N)n1)C(=O)O [CEFTAZIDIME] was tested, and the MIC (Acinetobacter baumannii [1]) was 4 µg/mL (≈ 7.32 µM), the MIC (Acinetobacter baumannii [2]) was greater than 256 µg/mL and the MIC (Acinetobacter baumannii [3]) was greater than 256 µg/mL. For the same compound, the MIC (Acinetobacter baumannii [4]) was greater than 256 µg/mL, the MIC (Acinetobacter baumannii [5]) was 12 µg/mL (≈ 22 µM) and the MIC (Acinetobacter baumannii [6]) was greater than 256 µg/mL. For the same compound, the MIC (Acinetobacter baumannii [7]) was greater than 256 µg/mL, the MIC (Acinetobacter baumannii [8]) was greater than 48 µg/mL and the MIC (Acinetobacter baumannii [9]) was greater than 256 µg/mL. For the same compound, the MIC (Acinetobacter baumannii [10]) was greater than 256 µg/mL, the MIC (Acinetobacter baumannii [11]) was greater than 256 µg/mL and the MIC (Acinetobacter baumannii [12]) was 6 µg/mL (≈ 11 µM). It also gave an MIC (Acinetobacter baumannii [13]) greater than 256 µg/mL, an MIC (Acinetobacter baumannii [14]) of 32 µg/mL (≈ 58.5 µM) and an MIC (Acinetobacter baumannii [15]) greater than 256 µg/mL. For the same compound, the MIC (Acinetobacter baumannii [16]) was greater than 256 µg/mL, the MIC (Acinetobacter baumannii [17]) was 96 µg/mL (≈ 176 µM) and the MIC (Acinetobacter baumannii [18]) was greater than 48 µg/mL. The MIC (Acinetobacter baumannii [19]) was 16 µg/mL (≈ 29.3 µM), the MIC (Acinetobacter baumannii [20]) was 12 µg/mL (≈ 22 µM) and the MIC (Acinetobacter baumannii [21]) was greater than 256 µg/mL. For the same compound, the MIC (Acinetobacter baumannii [22]) was 6 µg/mL (≈ 11 µM), the MIC (Acinetobacter baumannii [23]) was greater than 256 µg/mL and the MIC (Acinetobacter baumannii [24]) was greater than 48 µg/mL. The MIC (Acinetobacter baumannii [25]) was 128 µg/mL (≈ 234 µM), the MIC (Acinetobacter baumannii [26]) was greater than 256 µg/mL and the MIC (Acinetobacter baumannii [27]) was 48 µg/mL (≈ 87.8 µM). The MIC (Acinetobacter baumannii [28]) was greater than 256 µg/mL, the MIC (Acinetobacter baumannii [29]) was 24 µg/mL (≈ 43.9 µM) and the MIC (Acinetobacter baumannii [30]) was greater than 256 µg/mL. The MIC (Acinetobacter baumannii [31]) was 12 µg/mL (≈ 22 µM), the MIC (Acinetobacter baumannii [32]) was 4 µg/mL (≈ 7.32 µM) and the MIC (Acinetobacter baumannii [33]) was greater than 48 µg/mL. It also gave an MIC (Acinetobacter baumannii [34]) of 24 µg/mL (≈ 43.9 µM), an MIC (Acinetobacter baumannii [35]) of 16 µg/mL (≈ 29.3 µM) and an MIC (Acinetobacter baumannii [36]) of 48 µg/mL (≈ 87.8 µM). The MIC (Acinetobacter baumannii [37]) was greater than 48 µg/mL, the MIC (Acinetobacter baumannii [38]) was greater than 256 µg/mL and the MIC (Acinetobacter baumannii [39]) was 4 µg/mL (≈ 7.32 µM). It also gave an MIC (Acinetobacter baumannii [40]) of 96 µg/mL (≈ 176 µM).
